Source: ChEMBL document CHEMBL5537200, “Discovery of Artemisinins as Microsomal Prostaglandins Synthase-2 Inhibitors for the Treatment of Colorectal Cancer via Chemoproteomics” (J Med Chem, 2024)
Active and inactive are the calls of the source. The rule behind the calls is not given here.

Assays:
HCT-116 [1] = experiment: Antiproliferative activity against human HCT-116 cells assessed as inhibition of cell growth by Cell-titer Glo luminescent assay; type: functional, cell-based
HCT-116 [2] = experiment: Growth inhibition of human HCT-116 cells incubated for 48 hrs by Cell-titer Glo luminescent assay; type: functional
HCT-116 [3] = experiment: Growth inhibition of human HCT-116 cells incubated for 72 hrs by Cell-titer Glo luminescent assay; type: functional
HCT-116 [4] = experiment: Growth inhibition of human HCT-116 cells incubated for 24 hrs by Cell-titer Glo luminescent assay; type: functional
[5] = target: T1, Prostaglandin E synthase 2 (Homo sapiens, UniProt Q9H7Z7); experiment: Binding affinity to heme-free recombinant mPGES-2 (unknown origin) at 1 uM under UV irradiation by coomassie blue staining assay
[6] = target: T1, Prostaglandin E synthase 2; experiment: Binding affinity to heme-bound recombinant mPGES-2 (unknown origin) at 1 uM in presence of H2O2 under UV irradiation by coomassie blue staining assay
[7] = target: T1, Prostaglandin E synthase 2; experiment: Binding affinity to heme-free recombinant mPGES-2 (unknown origin) at 1 uM incubated for 1 hr pretreated with PGH2 addition by competitive labeling gel fluorescence assay
[8] = target: T1, Prostaglandin E synthase 2; experiment: Binding affinity to heme-free recombinant mPGES-2 (unknown origin) at 1 uM in presence of H2O2 under UV irradiation by coomassie blue staining assay
[9] = target: T1, Prostaglandin E synthase 2; experiment: Binding affinity to heme-free recombinant mPGES-2 (unknown origin) at 1 uM in presence of NaVc under UV irradiation by coomassie blue staining assay
[10] = target: T1, Prostaglandin E synthase 2; experiment: Inhibition of mPGES-2 in human HCT-116 cells assessed as downregulation of mPGES-2 expression at 10 uM incubated for 3 hrs under UV irradiation by SDS-PAGE based pull-down assay; type: cell-based
[11] = target: T1, Prostaglandin E synthase 2; experiment: Binding affinity to heme-free recombinant mPGES-2 (unknown origin) at 1 uM incubated for 1 hr pretreated with GSH addition by competitive labeling gel fluorescence assay
[12] = target: T1, Prostaglandin E synthase 2; details: HCT-116, dose 20.0 µM, time 2.0 hrs
[13] = target: T1, Prostaglandin E synthase 2; experiment: Binding affinity to heme-bound recombinant mPGES-2 (unknown origin) at 1 uM in presence of H2O2 without UV irradiation by coomassie blue staining assay
[14] = target: T1, Prostaglandin E synthase 2; experiment: Inhibition of mPGES-2 in human HCT-116 cells assessed as downregulation of mPGES-2 expression at 10 uM incubated for 3 hrs by SDS-PAGE based pull-down assay; type: cell-based
[15] = target: T1, Prostaglandin E synthase 2; experiment: Binding affinity to heme-bound recombinant mPGES-2 (unknown origin) at 1 uM in presence of NaVc under UV irradiation by coomassie blue staining assay
[16] = target: T1, Prostaglandin E synthase 2; experiment: Binding affinity to heme-free recombinant mPGES-2 (unknown origin) at 1 uM incubated for 1 hr followed by ART addition for 30 mins by competitive labeling gel fluorescence assay; details: time 1.5 hrs
[17] = target: T1, Prostaglandin E synthase 2; experiment: Inhibition of heme-free recombinant mPGES-2 (unknown origin) at 100 uM by dilution assay relative to control
[18] = target: T1, Prostaglandin E synthase 2; experiment: Inhibition of heme-free recombinant mPGES-2 (unknown origin) pre-incubated with compound for 15 mins followed by PGH2 addition measured after 1 min by ELISA
HCT-116 [19] = experiment: Antiproliferative activity against human HCT-116 cells assessed as inhibition of cell growth incubated for 48 hrs by Cell-titer Glo luminescent assay; type: functional, cell-based
SW-620 [20] = experiment: cells; details: Homo sapiens, SW-620, 48 h, read-out: INH
Description: Antiproliferative activity against human SW620 cells assessed as inhibition of cell growth at 50 uM incubated for 48 hrs in presence of succinylacetone by Cell-titer Glo luminescent assay relative to control

HCT-116 [21] = experiment: Antiproliferative activity against human HCT-116 cells assessed as reduction in cell growth at 50 uM by Cell-titer Glo luminescent assay; type: functional, cell-based
SW-620 [22] = experiment: Antiproliferative activity against human SW620 cells assessed as inhibition of cell growth at 50 uM incubated for 48 hrs in presence of aminolevulinic acid by Cell-titer Glo luminescent assay; type: functional, cell-based
[23] = target: T1, Prostaglandin E synthase 2; experiment: Inhibition of heme-free recombinant mPGES-2 (unknown origin) pre-incubated with compound for 15 mins followed by PGH2 addition measured after 60 min by ELISA
HCT-116 [24] = experiment: cells; details: Homo sapiens, HCT-116, 48 h, read-out: INH
Description: Antiproliferative activity against human HCT-116 cells assessed as inhibition of cell growth at 50 uM incubated for 48 hrs in presence of succinylacetone by Cell-titer Glo luminescent assay relative to control

[25] = target: T1, Prostaglandin E synthase 2; experiment: Inhibition of heme-free recombinant mPGES-2 (unknown origin) pre-incubated with compound for 15 mins followed by PGH2 addition measured after 10 min by ELISA
Caco-2 = experiment: Antiproliferative activity against human Caco-2 cells assessed as inhibition of cell growth at 50 uM incubated for 48 hrs in presence of aminolevulinic acid by Cell-titer Glo luminescent assay; type: functional, cell-based
HCT-116 [26] = experiment: Antiproliferative activity against SiRNA mediated mPGES-2 knockdown human HCT-116 cells assessed as reduction in cell growth by Cell-titer Glo luminescent assay; type: functional, cell-based
HCT-116 [27] = experiment: Antiproliferative activity against human HCT-116 cells assessed as reduction in cell growth at 10 to 20 uM by Cell-titer Glo luminescent assay; type: functional, cell-based; details: dose 10-20 µM
[28] = target: T1, Prostaglandin E synthase 2
Description: Displacement of ART-P1 from heme-free recombinant mPGES-2 (unknown origin) assessed as inhibition of ART-P1 binding to mPGES-2 incubated for 1 hr followed by ART-P1 addition for 30 mins by competitive labeling gel fluorescence assay

[29] = target: T1, Prostaglandin E synthase 2; experiment: Inhibition of heme-free recombinant mPGES-2 (unknown origin) pre-incubated with compound for 15 mins followed by PGH2 addition measured after 30 min by ELISA
HCT-116 [30] = experiment: Antiproliferative activity against human HCT-116 cells assessed as inhibition of cell growth at 50 uM incubated for 48 hrs in presence of aminolevulinic acid by Cell-titer Glo luminescent assay; type: functional, cell-based
[31] = target: T1, Prostaglandin E synthase 2; experiment: Inhibition of heme-free recombinant mPGES-2 (unknown origin) pre-incubated with compound for 15 mins followed by PGH2 addition measured after 5 min by ELISA
SW-620 [32] = experiment: Antiproliferative activity against human SW620 cells assessed as inhibition of cell growth incubated for 48 hrs by Cell-titer Glo luminescent assay; type: functional, cell-based

T1 sequence (Q9H7Z7 whole entry): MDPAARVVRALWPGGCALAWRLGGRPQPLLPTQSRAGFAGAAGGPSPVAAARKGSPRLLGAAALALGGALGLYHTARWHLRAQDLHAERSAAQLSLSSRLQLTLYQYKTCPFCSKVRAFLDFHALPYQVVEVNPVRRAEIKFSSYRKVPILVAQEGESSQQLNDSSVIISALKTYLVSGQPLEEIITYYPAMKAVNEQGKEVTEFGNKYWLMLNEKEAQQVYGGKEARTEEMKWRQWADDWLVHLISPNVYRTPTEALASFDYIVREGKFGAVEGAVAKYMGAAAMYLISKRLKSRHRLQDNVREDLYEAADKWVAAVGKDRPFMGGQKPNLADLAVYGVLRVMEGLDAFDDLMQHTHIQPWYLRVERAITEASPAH

Q: With `C[C@H]1[C@@H](CCCO)O[C@@H]2O[C@]3(C)CC[C@H]4[C@H](C)CC[C@@H]1[C@@]24OO3` as the compound, how does the IC50 (HCT-116 [1]) read?
A: The IC50 was 38.1 µM.

Q: Which IC50 (HCT-116 [1]) does the source give for `C[C@H]1[C@@H](OC(=O)c2ccccc2)O[C@@H]2O[C@]3(C)CC[C@H]4[C@H](C)CC[C@@H]1[C@@]24OO3` here?
A: Its IC50 is 3.9 µM.

Q: `C=CC[C@H]1O[C@@H]2O[C@]3(C)CC[C@H]4[C@H](C)CC[C@@H]([C@H]1C)[C@@]24OO3` was tested. Which IC50 (HCT-116 [1]) did it give?
A: The IC50 was 8.5 µM.

Q: Which GI50 (HCT-116 [2]) does the source give for `C#CCCC1(CCN2CCN(CCC[C@H]3O[C@@H]4O[C@]5(C)CC[C@H]6[C@H](C)CC[C@@H]([C@H]3C)[C@@]46OO5)CC2)N=N1` here?
A: Its GI50 is 35.9 µM.

Q: And the GI50 (HCT-116 [3])?
A: Its GI50 is 22.5 µM.

Q: What about the GI50 (HCT-116 [4]) of the same compound?
A: Its GI50 is 53.1 µM.

Q: Which GI50 (HCT-116 [2]) does the source give for `C#CCN(CCC[C@H]1O[C@@H]2O[C@]3(C)CC[C@H]4[C@H](C)CC[C@@H]([C@H]1C)[C@@]24OO3)C(=O)CCC1(C)N=N1` here?
A: The GI50 was 5.1 µM.

Q: What about the Activity [5] of the same compound?
A: The Activity was “Active”.

Q: What about the Activity [6] of the same compound?
A: Its Activity is “inactive”.

Q: And the Activity [7]?
A: The Activity was “inactive”.

Q: And the Activity [8]?
A: Its Activity is “inactive”.

Q: What about the GI50 (HCT-116 [3]) of the same compound?
A: The GI50 was 3.9 µM.

Q: What about the Activity [9] of the same compound?
A: Its Activity is “inactive”.

Q: And the inhibition [10]?
A: The inhibition was “Active”.

Q: And the GI50 (HCT-116 [4])?
A: Its GI50 is 13.4 µM.

Q: What about the Activity [11] of the same compound?
A: Its Activity is “Active”.

Q: What about the Tm [12] of the same compound?
A: Its Tm is 46.9 °C.

Q: And the Activity [13]?
A: Its Activity is “inactive”.

Q: What about the inhibition [14] of the same compound?
A: Its inhibition is “Active”.

Q: What about the Activity [15] of the same compound?
A: Its Activity is “Active”.

Q: And the Activity [16]?
A: Its Activity is “inactive”.

Q: `C[C@H]1[C@@H](CCCN2CCNCC2)O[C@@H]2O[C@]3(C)CC[C@H]4[C@H](C)CC[C@@H]1[C@@]24OO3` was tested. Which IC50 (HCT-116 [1]) did it give?
A: The IC50 was over 50 µM.

Q: How did the inhibition [17] turn out when `NC(=O)CI` was run?
A: The inhibition was “inactive”.

Q: For `CO[C@H]1O[C@@H]2O[C@@]3(C)CC[C@H]4[C@H](C)CC[C@@H]([C@H]1C)[C@@]24OO3` [ARTEMETHER], which IC50 (HCT-116 [1]) is on record?
A: The IC50 was 8.6 µM.

Q: With `C[C@@H]1CC[C@H]2[C@@H](C)C(=O)O[C@@H]3O[C@@]4(C)CC[C@@H]1[C@]32OO4` [ARTEMISININ] as the compound, how does the IC50 [18] read?
A: The IC50 was 10.8 µM.

Q: And the Activity (HCT-116 [19])?
A: Its Activity is “Active”.

Q: And the inhibition at 50 µM (SW-620 [20])?
A: The inhibition at 50 µM was over 50%.

Q: What about the Activity (HCT-116 [21]) of the same compound?
A: Its Activity is “Active”.

Q: And the GI50 (HCT-116 [2])?
A: Its GI50 is 7.2 µM.

Q: What about the Activity (SW-620 [22]) of the same compound?
A: The Activity was “inactive”.

Q: What about the IC50 [23] of the same compound?
A: Its IC50 is 8.8 µM.

Q: And the inhibition at 50 µM (HCT-116 [24])?
A: Its inhibition at 50 µM is over 50%.

Q: And the IC50 [25]?
A: The IC50 was 10.3 µM.

Q: And the Activity (Caco-2)?
A: Its Activity is “inactive”.

Q: What about the GI50 (HCT-116 [3]) of the same compound?
A: The GI50 was 4.3 µM.

Q: And the GI50 (HCT-116 [4])?
A: Its GI50 is 22.5 µM.

Q: And the Activity (HCT-116 [26])?
A: The Activity was “inactive”.

Q: And the Tm [12]?
A: Its Tm is 62.5 °C.

Q: What about the IC50 (HCT-116 [1]) of the same compound?
A: The IC50 was 7.2 µM.

Q: And the Activity (HCT-116 [27])?
A: The Activity was “Active”.

Q: And the IC50 [28]?
A: Its IC50 is 8.8 µM.

Q: And the IC50 [29]?
A: Its IC50 is 8.9 µM.

Q: And the Activity (HCT-116 [30])?
A: The Activity was “inactive”.

Q: What about the IC50 [31] of the same compound?
A: Its IC50 is 9.9 µM.

Q: And the Activity (SW-620 [32])?
A: The Activity was “Active”.

Q: How did the IC50 (HCT-116 [1]) turn out when `C[C@H]1[C@@H](O)O[C@@H]2O[C@@]3(C)CC[C@H]4[C@H](C)CC[C@@H]1[C@@]24OO3` [ARTENIMOL] was run?
A: The IC50 was 13.6 µM.

Q: With `C[C@H]1[C@H](OC(=O)CCC(=O)O)O[C@@H]2O[C@@]3(C)CC[C@H]4[C@H](C)CC[C@@H]1[C@@]24OO3` [ARTESUNATE] as the compound, how does the IC50 (HCT-116 [1]) read?
A: The IC50 was 0.46 µM.

Q: With `C[C@@H]1CC[C@H]2[C@@H](C)C(=O)O[C@@H]3O[C@@]4(C)CC[C@@H]1[C@]32O4` [DEOXYARTEMISININ] as the compound, how does the Tm [12] read?
A: Its Tm is 63.4 °C.

Q: And the IC50 (HCT-116 [1])?
A: The IC50 was over 50 µM.

Q: What about the IC50 [28] of the same compound?
A: The IC50 was over 50 µM.
